US20220000848A1, “APPLICATION OF CHIDAMIDE” (SHENZHEN CHIPSCREEN BIOSCIENCES CO., LTD., priority 2018, published 2022)

What was measured:
[1] = tested on: relapsed or refractory B cell lymphoma; assay: Phase II clinical trial of Chidamide monotherapy in relapsed or refractory B cell lymphoma; format: in vivo, human; conditions: patients, oral 30 mg 2 times a week; 8 cases evaluated of 10 enrolled
Procedure: (§1) Test drugs: Chidamide tablets: off-white tablets, 5 mg/tablet. Produced by Shenzhen Chipscreen Biosciences Co., Ltd.
(§2) Dosage regimen: 2 times a week, 30 mg each time, the interval of two administrations should not be less than 3 days (for example, on Monday and Thursday, Tuesday and Friday, Wednesday and Saturday, etc.). The administration was performed 30 minutes after breakfast, every 3 weeks was a treatment cycle. During the entire study, all subjects should unceasingly receive the treatment under study until the appearance of any one of the following conditions: progression of disease, intolerable adverse reaction, death, withdrawal from treatment, withdrawal of the informed consent or loss to follow-up.
Number of cases: Simon's optimal two-stage design was adopted, 72 patients were enrolled, and pathological subtypes included: follicular lymphoma (FL) grade 1, grade 2 or grade 3, marginal zone B-cell lymphoma (MALT), lymphoplasmacytic lymphoma (LPL), small lymphocyte B cell lymphoma (SLL), diffuse large B cell lymphoma (DLBCL).
The patients were orally administrated with Chidamide according to the aforementioned dosage regimen, and the safety- and efficacy evaluation were performed as required at the specified time.
Efficacy evaluation time: efficacy evaluation was performed once every 6 weeks. […]

[2] = tested on: relapsed or refractory follicular lymphoma (FL) accompanied with specific epigenetic regulatory gene mutation; assay: Multicenter, single-arm, open clinical trial of Chidamide tablet in relapsed or refractory follicular lymphoma with CREBBP and/or EP300 mutation (pre-test); format: in vivo, human; conditions: 11 patients accompanied with epigenetic mutation B-NHL, oral 30 mg 2 times a week
Procedure: as §1
as §2, with “follow-up. […]” for “follow-up.”
4. Having CREBBP and/or EP300 specific genetic mutation that was confirmed by second-generation sequencing;
Patients were orally administrated with Chidamide according to the regimen, and the following safety- and efficacy follow-ups were performed at the specified times:
Follow-up interval: Efficacy assessment was carried out once every 6 weeks; and efficacy follow-up was performed at the end of treatment.
Efficacy evaluation means: Evaluation of lymph nodes and organ lesions, skin lesions was performed by imaging methods (CT or PET/CT), clinical examination, bone marrow puncture and biopsy. The imaging methods used for patients must be the same at all follow-up points. […]

Nc1cc(F)ccc1NC(=O)c1ccc(CNC(=O)/C=C/c2cccnc2)cc1 [Chidamide]
ORR [1]: 37.5% | benefit rate [1]: 62.5% | CR [2]: 36.3% | ORR [2]: 72.7%
